Assays:
[1] = molecular target: T1, Cdk2(T182C) (C177A) (Homo sapiens, UniProt P24941, C177A/T182C); experiment: Kinetic thiol consumption assay with Cdk2 mutant T182C; type: binding; set-up: key to Rate enhancement, Cdk2 T182C: rate constant with Cdk2 ÷ rate constant with model thiol (fold); settings: additional mutation C177A; for Rate constant with Cdk2 T182C: Protein: Cdk2, cysteine position T182C, in h^-1
T1 construct: poly-histidine; made in house; host or cells: E. coli
Method in brief: (§1)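 Read-out is fluorescence at 380/470 nm, taken after 1 h at room temperature and normalized to a DMSO/thiol-only control over time. Thiol (5 μM Cdk2 mutant or model thiol) was in degassed pH 8 phosphate buffer with 2% v/v TCEP beads. Acrylamide rate constants for Cdk2 were divided by those with model thiol.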

[2] = molecular target: T2, Cdk2(C177A, F80C) (Homo sapiens, UniProt P24941, C177A/F80C); experiment: Kinetic thiol consumption assay with Cdk2 mutant F80C, incl. kobs versus concentration (Kd, k2); type: binding; set-up: key to Rate enhancement, Cdk2 F80C: Cdk2 rate constant divided by model-thiol rate constant; settings: additional mutation C177A; for Rate constant with Cdk2 F80C: Protein: Cdk2, cysteine position F80C, in h^-1
T2 construct: poly-histidine; made in house; host or cells: E. coli
Method in brief: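 His-tagged Cdk2(C177A/F80C) from E. coli or model thiol, 5 μM in degassed phosphate buffer pH 8 with TCEP beads, reacted with acrylamide ligands; fluorescence (ex/em 380/470 nm) normalized to DMSO control and fitted to first-order decay for kobs. Kd and k2 obtained from hyperbolic fit of kobs versus ligand concentration.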

[3] = molecular target: T3, Cdk2(N272C) (C177A) (Homo sapiens, UniProt P24941, C177A/N272C); experiment: Kinetic thiol consumption assay with Cdk2 mutant N272C; type: binding; set-up: key to Rate enhancement, Cdk2 N272: rate constant with Cdk2 ÷ rate constant with model thiol (fold); settings: for Rate enhancement, Cdk2 N272: Cdk2 N272, additional mutation C177A; for Rate constant with Cdk2 N272C: Protein: Cdk2, cysteine position N272C, additional mutation C177A, in h^-1
T3 construct: poly-histidine; made in house; host or cells: E. coli
Method in brief: as §1

[4] = molecular target: T4, Cdk2(S276C) (C177A) (Homo sapiens, UniProt P24941, C177A/S276C); experiment: Kinetic thiol consumption assay with Cdk2 mutant S276C; type: binding; set-up: key to Rate enhancement, Cdk2 S276C: rate constant with Cdk2 ÷ rate constant with model thiol (fold); settings: additional mutation C177A; for Rate constant with Cdk2 S276C: Protein: Cdk2, cysteine position S276C, in h^-1
T4 construct: poly-histidine; made in house; host or cells: E. coli
Method in brief: as §1

[5] = molecular target: T5, human cyclin-dependent kinase 2 (Cdk2) (Homo sapiens, UniProt P24941); experiment: Kinetic thiol consumption assay with wild type Cdk2 (C177); type: binding; set-up: key to Rate enhancement, Cdk2 WT: k(Cdk2) divided by k(model thiol); Rate constant with Cdk2 (k(Cdk2)): unit not given here; settings: for Rate constant with Cdk2 (k(Cdk2)): 500 μM ligand, 5 μM thiol, phosphate buffer pH 8; for Rate enhancement, Cdk2 WT: no additional mutations; for Rate constant with Cdk2 WT: Protein: Cdk2, cysteine position WT, in h^-1; for k(Cdk2)/k(Cdk2_mut) rate enhancement: model thiol Cdk2[C177A, F80C, K278C]; for k(Cdk2)/k(GSH) rate enhancement: model thiol glutathione
T5 construct: poly-histidine; made in house; host or cells: E. coli
Method in brief: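 His-tagged human Cdk2 from E. coli (sole surface cysteine C177) or a model thiol, each 5 μM in degassed phosphate buffer pH 8 with immobilized TCEP, reacted with acrylamides at room temperature. Fluorescence (ex 380/em 470) normalized to DMSO/thiol control over time; first-order rate constants, Cdk2 rate divided by model-thiol rate.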

[6] = molecular target: T6, Cdk2(S181C) (C177A) (Homo sapiens, UniProt P24941, C177A/S181C); experiment: Kinetic thiol consumption assay with Cdk2 mutant S181C; type: binding; set-up: key to Rate enhancement, Cdk2 S181C: rate constant with Cdk2 ÷ rate constant with model thiol (fold); settings: additional mutation C177A; for Rate constant with Cdk2 S181C: Protein: Cdk2, cysteine position S181C, in h^-1
T6 construct: poly-histidine; made in house; host or cells: E. coli
Method in brief: as §1

[7] = molecular target: T7, Cdk2(R122C) (C177A) (Homo sapiens, UniProt P24941, C177A/R122C); experiment: Kinetic thiol consumption assay with Cdk2 mutant R122C; type: binding; set-up: key to Rate enhancement, Cdk2 R122C: rate constant with Cdk2 ÷ rate constant with model thiol (fold); settings: additional mutation C177A; for Rate constant with Cdk2 R122C: Protein: Cdk2, cysteine position R122C, in h-1
T7 construct: poly-histidine; made in house; host or cells: E. coli
Method in brief: as §1

[8] = Kinetic thiol consumption assay with model thiol glutathione; type: physicochemical; set-up: Rate constant with glutathione (k(GSH)): unit not given here; settings: for Rate constant with glutathione (k(GSH)): 500 μM ligand, 5 μM thiol, phosphate buffer pH 8; for Rate constant with Glutathione: Protein: Glutathione, cysteine position NA, in h-1
Method in brief: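 GSH 5 μM, degassed phosphate buffer pH 8, TCEP beads 2% v/v; acrylamide added; RT, 1 h; fluorescence ex/em 380/470 nm; normalized to DMSO/thiol control; k from first-order exponential decay fit.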

[9] = molecular target: T8, Cdk2[C177A, F80C, K278C] (Homo sapiens, UniProt P24941, C177A/F80C/K278C); experiment: Kinetic thiol consumption assay with mutant Cdk2 as model thiol; type: binding; set-up: unit not given here; settings: 500 μM ligand, 5 μM thiol, phosphate buffer pH 8
T8 construct: poly-histidine; made in house; host or cells: E. coli
Protocol: A library of 120 acrylamides was screened against a) human cyclin-dependent kinase 2 (Cdk2, which contains one surface exposed cysteine residue—C177), prepared by cloning cDNA into the pRSETA bacterial expression vector to generate a poly-histidine tagged Cdk2 fusion that was purified from E. coli using standard techniques, and b) a model thiol (specific details are given below). The structures of these 120 acrylamides are set out in Table 1, above.
To wells containing 150 μL thiol (Cdk2 or model thiol) (5 μM) in degassed phosphate buffer (pH 8) was added immobilized TCEP beads (2% v/v).
After incubation of the fluorescence plates for 1 hour at room temperature, fluorescence measurements (excitation/emission of 380/470 nm) were taken on a PerkinElmer EnVision multilabel plate reader and processed with EnVision Workstation version 1.12.
Fluorescence measurements were normalized against a DMSO/thiol only control and plotted against time.
Rate constants were calculated using GraphPad software Prism version 6 by fitting a first order exponential decay to the data. The rate constant for each acrylamide with Cdk2 was divided by the rate constant for that fragment with the model thiol to provide the rate enhancement for each ligand candidate.
The model thiol used in Example 2 is a mutant form of human Cdk2 (C177A, F80C, K278C) which contains two engineered surface exposed cysteine residues. Mutations were introduced by site-directed mutagenesis and the resulting cDNA was cloned into the pRSETA bacterial expression vector to generate a poly-histidine tagged Cdk2 fusion that was purified from E. coli using standard techniques.

[10] = molecular target: T9, Cdk2(H71C) (C177A) (Homo sapiens, UniProt P24941, C177A/H71C); experiment: Kinetic thiol consumption assay with Cdk2 mutant H71C; type: binding; set-up: key to Rate enhancement, Cdk2 H71C: rate constant with Cdk2 ÷ rate constant with model thiol (fold); settings: additional mutation C177A; for Rate constant with Cdk2 H71C: Protein: Cdk2, cysteine position H71C, in h^-1
T9 construct: poly-histidine; made in house; host or cells: E. coli
Method in brief: as §1

Rate enhancement, Cdk2 T182C [1] | Rate constant with Cdk2 T182C [1] | Rate enhancement, Cdk2 F80C [2] | Rate enhancement, Cdk2 N272 [3] | Rate constant with Cdk2 N272C [3] | Rate enhancement, Cdk2 S276C [4] | Rate constant with Cdk2 S276C [4] | Rate constant with Cdk2 (k(Cdk2)) [5] | Rate enhancement, Cdk2 WT [5] | Rate constant with Cdk2 WT [5] | k(Cdk2)/k(Cdk2_mut) rate enhancement [5] | k(Cdk2)/k(GSH) rate enhancement [5] | Rate enhancement, Cdk2 S181C [6] | Rate constant with Cdk2 S181C [6] | Rate enhancement, Cdk2 R122C [7] | Rate constant with Cdk2 R122C [7] | Rate constant with Cdk2[C177A, F80C, K278C] (k(Cdk2_mut)) [9] | Rate enhancement, Cdk2 H71C [10] | Structure (SMILES) | Rate constant with glutathione (k(GSH)) [8] | Rate constant with Glutathione [8] | further results
0.2621 | 0.0006241 | 0 | 4.591 | 0.01093 | 0.6972 | 0.00166 | 0.0007 | 0.4066 | 0.0009681 | 0.6937 | 0.2881 | 1.073 | 0.002556 | 0.4288 | 0.001021 | 0.00101 | 0.4859 | C=CC(=O)NC1C2CC3CC(C2)CC1C3 (centres unmarked) [CA-055] | 0.00243 | 0.002381 | Rate constant with Cdk2 H71C [10]: 0.001157
0.8366 | 0.007716 | 0.1408 | 0.4916 | 0.004534 | 0.6649 | 0.006132 | 0.00553 | 1.018 | 0.00939 | 2.634 | 0.9328 | 4.96 | 0.04575 | 0.4828 | 0.004453 | 0.0021 | 0.2998 | C=CC(=O)N1CCCN(Cc2noc(C3CC3)n2)CC1 [CA-079] | 0.00593 | 0.009223 | Rate constant with Cdk2 F80C [2]: 0.001299; Rate constant with Cdk2 H71C [10]: 0.002765
0.8711 | 0.002061 | 2.644 | 0.9112 | 0.002156 | 1.179 | 0.002789 | 0.00121 | 0.7866 | 0.001861 | 0.3031 | 0.4134 | 0.5182 | 0.001226 | 0 | – | 0.00398 | 0.538 | C=CC(=O)NCc1ccc(C(=O)OC)cc1 [BN-65] | 0.00292 | 0.002366 | Rate constant with Cdk2 F80C [2]: 0.006255; Rate constant with Cdk2 H71C [10]: 0.001273
1.619 | 0.00832 | – | 3.677 | 0.01889 | 1.112 | 0.005711 | 0.00226 | 0.7143 | 0.00367 | 1.013 | 0.7988 | 0.7812 | 0.004014 | 0.4675 | 0.002402 | 0.00223 | 0 | C=CC(=O)NCCCN(C(=O)C1CCC1)C1CC1 [CA-060] | 0.00283 | 0.005138 | Rate constant with Cdk2 F80C [2]: ~0.0004944
5.018 | 0.2419 | 1.938 | 0.1844 | 0.008888 | 0.934 | 0.04503 | 0.1611 | 3.342 | 0.1611 | 0.9764 | – | 0.5323 | 0.02566 | 0.491 | 0.02367 | 0.165 | 0.5613 | C=CC(=O)Nc1ccccc1C#N [EL-1178] | – | – | Rate constant with Cdk2 F80C [2]: 0.09345; Rate constant with Cdk2 H71C [10]: 0.02706
– | – | – | – | – | – | – | 0.02965 | – | – | 0.9818 | 0.8399 | – | – | – | – | 0.0302 | – | C=CC(=O)N1CCn2c(C(=O)NC3CC3)ccc2C1C (centres unmarked) [CA-040] | 0.0353 | – | –
– | – | – | – | – | – | – | 0.0034 | – | – | 0.2652 | 0.3001 | – | – | – | – | 0.01283 | – | C=CC(=O)N1CCCCCC1C/C=C/c1ccccc1 (centres unmarked) [CA-096] | 0.01134 | – | –
– | – | – | – | – | – | – | 0.02299 | – | – | 2.082 | 1.4 | – | – | – | – | 0.01104 | – | C=CC(=O)N(c1cccc2ncccc12)C1CCC1 [CA-032] | 0.01642 | – | –
– | – | – | – | – | – | – | 0.2899 | – | – | 18.23 | 1.26 | – | – | – | – | 0.0159 | – | C=CC(=O)N(Cc1ccco1)Cc1ccco1 [CA-099] | 0.23 | – | –
– | – | – | – | – | – | – | 0.00879 | – | – | 1.851 | 5.108 | – | – | – | – | 0.00475 | – | C=CC(=O)N(C1CC1)C1CCCCC1C1CCCCC1 (centres unmarked) [CA-081] | 0.00172 | – | –
